These results are taken from patent US8609672B2, “Piperazinylpyrimidine analogues as protein kinase inhibitors” (University of the Pacific, priority 2010, dated 2013).

The term melting point denotes the temperature, or range, at which the solid turns liquid. For orientation: Kd means the constant that tells how readily two partners part at equilibrium.

SMILES strings stand for the structures.

System in the first data set: not given
Details: not given
`O=C(c1ccc(Nc2nc(-c3ccccc3)nc3ccccc23)cc1)N1CCN(c2ncc(Cc3ccccc3)cn2)CC1` [Compound 23, (4-(5-benzylpyrimidin-2-yl)piperazin-1-yl)(4-(2-phenylquinazolin-4ylamino)phenyl)methanone] returned a melting point of over 250 °C.

`O=C(c1ccc(CNc2nc(-c3ccccc3)nc3ccccc23)cc1)N1CCN(c2ncc(Cc3ccccc3)cn2)CC1` [Compound 24, (4-(5-benzylpyrimidin-2-yl)piperazin-1-yl)(4-((2-phenylquinazolin-4-ylamino)methyl)phenyl)methanone]: the melting point was 216 to 217 °C.

Regarding `CCc1cnc(N2CCN(C(=O)c3ccccc3NC3(c4ccccc4)NC=Nc4ccccc43)CC2)nc1` (centres unmarked) [Compound 20, (4-(5-ethylpyrimidin-2-yl)piperazin-1-yl)(2-(4-phenylquinazolin-4-ylamino)phenyl)methanone], the melting point is over 250 °C.

The molecule `CCc1cnc(N2CCN(C(=O)c3ccc(CNc4nc(-c5ccccc5)nc5ccccc45)cc3)CC2)nc1` [Compound 21, (4-(5-ethylpyrimidin-2-yl)piperazin-1-yl)(4-((2-phenylquinazolin-4ylamino)methyl)phenyl)methanone] came in with a melting point of 207 to 208 °C.

With `CCc1cnc(N2CCN(C(=O)c3ccccc3NC3=c4ccccc4=NCN3c3ccccc3)CC2)nc1` [Compound 19, (4-(5-ethylpyrimidin-2-yl)piperazin-1-yl)(2-(3-phenylquinazolin-4-ylamino)phenyl)methanone], the melting point fell in the range of 204 to 205 °C.

For the molecule `O=C(c1ccc(CNc2ncnc3ccccc23)cc1)N1CCN(c2ncc(Cc3ccccc3)cn2)CC1` [Compound 18, (4-(5-benzylpyrimidin-2-yl)piperazin-1-yl)(4-((quinazolin-4-ylamino)methyl)phenyl)methanone], the melting point lay within 99 to 101 °C.

For `CCc1cnc(N2CCN(C(=O)c3cccc(Nc4ncnc5ccccc45)c3)CC2)nc1` [Compound 13, (4-(5-ethylpyrimidin-2-yl)piperazin-1-yl)(3-(quinazolin-4-ylamino)phenyl)methanone], the melting point lay within 146 to 147 °C.

The molecule `c1ccc(Cc2cnc(N3CCN(c4nc(-c5ccccc5)nc5ccccc45)CC3)nc2)cc1` [Compound 6, 4-(4-(5-benzylpyrimidin-2-yl)piperazin-1-yl)-2-phenylquinazoline] displayed a melting point of 135 to 137 °C.

Take `O=C(c1cccc(Nc2nc(-c3ccccc3)nc3ccccc23)c1)N1CCN(c2ncc(Cc3ccccc3)cn2)CC1` [Compound 22, (4-(5-benzylpyrimidin-2-yl)piperazin-1-yl)(3-(2-phenylquinazolin-4ylamino)phenyl)methanone]: the melting point was 214 to 215 °C.

Turning to `CCc1cnc(N2CCN(C(=O)c3ccc(Nc4ncnc5ccccc45)cc3)CC2)nc1` [Compound 14, (4-(5-ethylpyrimidin-2-yl)piperazin-1-yl)(4-(quinazolin-4-ylamino)phenyl)methanone], the melting point was in the range of 248 to 249 °C.

For `O=C(c1ccc(Nc2ncnc3ccccc23)cc1)N1CCN(c2ncc(Cc3ccccc3)cn2)CC1` [Compound 17, (4-(5-benzylpyrimidin-2-yl)piperazin-1-yl)(4-(quinazolin-4-ylamino)phenyl)methanone], the melting point fell in the range of 245 to 247 °C.

Molecule `CCc1cnc(N2CCN(c3ncnc4ccccc34)CC2)nc1` [Compound 3, 4-(4-(5-ethylpyrimidin-2-yl)piperazin-1-yl)quinazoline] yielded a melting point of over 250 °C.

With `CCc1cnc(N2CCN(c3nc(-c4ccccc4)nc4ccccc34)CC2)nc1` [Compound 5, 4-(4-(5-ethylpyrimidin-2-yl)piperazin-1-yl)-2-phenylquinazoline], the melting point lay within 137 to 138 °C.

A further data set deals with KIT (Homo sapiens, UniProt P10721). The following applies: KIT wild-type; reference kinase inhibitors, from literature; cited from earlier work.
Sequence of KIT (P10721 26-976): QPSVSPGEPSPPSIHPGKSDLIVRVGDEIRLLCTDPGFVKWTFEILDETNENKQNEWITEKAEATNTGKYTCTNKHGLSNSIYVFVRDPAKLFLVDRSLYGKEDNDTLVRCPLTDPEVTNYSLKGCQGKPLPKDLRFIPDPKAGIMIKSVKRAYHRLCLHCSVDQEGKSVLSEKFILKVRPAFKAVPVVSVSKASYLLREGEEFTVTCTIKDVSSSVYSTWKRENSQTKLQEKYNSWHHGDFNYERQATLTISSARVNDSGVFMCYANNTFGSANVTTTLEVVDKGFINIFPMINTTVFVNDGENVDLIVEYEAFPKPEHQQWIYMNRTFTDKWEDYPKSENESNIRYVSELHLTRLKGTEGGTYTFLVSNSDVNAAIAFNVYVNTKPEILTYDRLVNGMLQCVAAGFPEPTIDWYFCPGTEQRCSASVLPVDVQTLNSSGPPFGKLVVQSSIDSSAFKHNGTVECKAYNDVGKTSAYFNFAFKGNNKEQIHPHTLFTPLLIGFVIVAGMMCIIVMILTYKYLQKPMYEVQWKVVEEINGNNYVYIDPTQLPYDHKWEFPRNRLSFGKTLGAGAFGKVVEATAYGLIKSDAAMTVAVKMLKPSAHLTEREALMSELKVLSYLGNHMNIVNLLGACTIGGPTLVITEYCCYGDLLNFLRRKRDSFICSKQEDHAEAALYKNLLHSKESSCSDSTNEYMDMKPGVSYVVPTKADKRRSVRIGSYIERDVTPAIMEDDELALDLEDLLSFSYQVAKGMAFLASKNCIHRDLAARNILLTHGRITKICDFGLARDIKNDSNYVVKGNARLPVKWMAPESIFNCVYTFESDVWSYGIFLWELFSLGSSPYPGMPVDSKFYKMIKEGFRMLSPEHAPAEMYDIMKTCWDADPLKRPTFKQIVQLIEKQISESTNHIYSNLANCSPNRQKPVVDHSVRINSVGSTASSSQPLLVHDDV
Turning to `Oc1ccc(-c2nc(-c3ccc(F)cc3)c(-c3ccncc3)[nH]2)cc1` [SB-202190], the dissociation constant (Kd) was over 10000 nM.

In the case of `CCOc1cc2ncc(C#N)c(Nc3ccc(F)c(Cl)c3)c2cc1NC(=O)/C=C/CN(C)C` [EKB-569], the Kd is over 10000 nM.

In the case of `COCC(=O)NC/C=C/c1ccc2ncnc(Nc3ccc(Oc4ccc(C)nc4)c(C)c3)c2c1` [CP-724714], the Kd is over 10000 nM.

The same data set, now with this note: cited from earlier work.
In the case of `NC(=O)c1ccc(-c2nc(-c3ccccn3)c(-c3ccc4c(c3)OCO4)[nH]2)cc1` [SB-431542], the dissociation constant (Kd) is over 10000 nM.
